Assay results reported in patent publication US7332480B2, “Compositions for the regulation of cytokine activity” (Yeda Research and Development Co. Ltd., priority 1992, dated 2008).

What was measured:
[1] = test system: experimental DTH reaction in mice; assay: In vivo bioassay of inhibition of experimental DTH reactivity (oxazolone, ear swelling); design: key to effect on DTH (printed in the Dose column): “N.E.” indicates that no effect was observed at the tested dosage range of 0.000004-4 μg/gm mouse; settings: for effective dose range for inhibition ≧50% of control: Table XXIIIC footnotes, DTH, s.c., CD1 mice; for “R” value: no effect, zero assigned; for effect on DTH (printed in the Dose column): tested dosage range of 0.000004-4 μg/gm mouse s.c.
Description: Groups of inbred BALB/c (Jackson Laboratories, Bar Harbor, Me.) or of outbred CD1 (Weizmann Institute Animal Breeding Center, Rehovot, Israel) mice are sensitized on the shaved abdominal skin with 100 μl of 2% oxazolone (OX) in acetone/olive oil (4/1, v/v) applied topically. DTH sensitivity is elicited 5 days later as follows: mice are challenged with 20 μl of 0.5% OX (10 μl administered topically to each side of the ear) in acetone/olive oil. A constant area of the ear is measured immediately before challenge and 24 and 48 h later with a Mitutoyo engineer's micrometer. The individual measuring ear swelling is blinded to the identity of the groups of mice. The increment (Δ) of ear swelling is expressed as the mean in units of 10^−2 mm or 10^−4 inch (+SE) depending on the micrometer that is used. Percent inhibition is calculated as follows: […]
Mice are treated with LMWH again Example 5.1, injected the day before primary sensitization to OX. On the fifth day after sensitization to OX, the 10 mice are challenged to induce a DTH reaction, as described above.
The positive control is the DTH reaction elicited in immunized mice in the absence of treatment with LMWH. The negative control is the background swelling produced by the antigen in naive (non-immunized) mice. […]
BALB/c mice (at least 5 mice per group) were sensitized on the shaved abdomen with 3% 4-ethoxymethylene-2-phenyl oxazolone (OX; BDH-Chemicals, GB) in acetone/olive oil applied topically. DTH sensitivity was elicited 5 days later as follows. Mice were challenged with 0.5% OX in acetone/olive oil. The ear was measured immediately before challenge and 24 h later with Mitutoyo engineer's micrometer (Japan). The individual measuring the swelling of the ear was blinded to the identity of the groups of mice. To interfere with DTH response, the low molecular weight immuno-regulatory fractions, diluted in PBS, were administrated subcutaneously into the back of the treated mice at the indicated time schedules and concentrations. Treated mice were inspected during and after (>2 months) the treatment and no major side-effects were observed clinically.
In particular, CD1 mice (available from the Weizmann Institute Animal Breeding Center, Rehovot, Israel), 4-12 mice per group were treated as described in Section 5.2 or 6.8.

[2] = test system: secretion of active TNF-α by activated human CD4+ T cells; assay: Bioassay of TNF-α activity using human CD4+ T cells derived from PBLs (human PBL bioassay); assay type: cell-based; settings: for Bioassay of TNF Activity: Table XXIII, conc range of 1 μg/ml-0.01 pg/ml, inconsistent = same result not obtained for all three bioassays; for “R” value: no effect, zero assigned
From the text: Non adherent cells were eluted and washed.
Nophar, Y. et al. J. Immunol. (1988) 140 (10):3456-3460.

## O=S(=O)(O)N[C@H]1C(O)O[C@H](COS(=O)(=O)O)[C@@H](O)[C@@H]1O (stereo partly drawn) [GlcN-2, 6S, D-Glucosamine-2,6-disulfate, reference compound]
[1]
  effective dose range for inhibition ≧50% of control: narrow

## NC1C(O)OC(COS(=O)(=O)O)C(OC2OC(C(=O)O)=CC(O)C2OS(=O)(=O)O)C1O (stereo not drawn) [H-8892, 2-O-sulfate-4-deoxy-4-en-iduronic acid-(α-1,4)-2-deoxy-6-O-sulfateglucosamine]
[1]; Table XXIIIA
  “R” value: 0 % × (μg/gm)^−1
  effect on DTH (printed in the Dose column): N.E.
[2]
  Bioassay of TNF Activity: No effect
  “R” value: 0 % × (pg/ml)^−1

## O=S(=O)(O)N[C@H]1C(O)O[C@H](CO)[C@@H](O)[C@@H]1O (stereo partly drawn) [GlcN-2S, D-Glucosamine-2-N-sulfate, reference compound]
[1]; Table XXIIIC
  “R” value: 0 % × (μg/gm)^−1
  effect on DTH (printed in the Dose column): N.E.

## CC(=O)N[C@H]1C(O)O[C@H](CO)[C@@H](O)[C@@H]1O (stereo partly drawn) [NAc-GlcN, N-Acetylglucosamine, reference compound]
[1]; Table XXIIIC
  effect on DTH (printed in the Dose column): N.E.

## N[C@H]1C(O)O[C@H](COS(=O)(=O)O)[C@@H](O)[C@@H]1O (stereo partly drawn) [GlcN-6S, D-Glucosamine-6-sulfate, reference compound]
[1]; Table XXIIIC
  effect on DTH (printed in the Dose column): N.E.

## N[C@H]1C(O)O[C@H](CO)[C@@H](O)[C@@H]1OS(=O)(=O)O (stereo partly drawn) [GlcN-3S, D-Glucosamine-3-sulfate, reference compound]
[1]; Table XXIIIC
  effect on DTH (printed in the Dose column): N.E.

## O=C(O)C1=C[C@H](O)[C@@H](O)[C@H](O[C@H]2[C@H](O)[C@@H](NS(=O)(=O)O)C(O)O[C@@H]2CO)O1 (stereo partly drawn) [H-1145, 4-deoxy-4-en-iduronic acid-(α-1,4)-2-deoxy-2-N-sulfateglucosamine]
[1]; Table XXIIIA
  “R” value: 0 % × (μg/gm)^−1
  effect on DTH (printed in the Dose column): N.E.

## CC(=O)NC1C(O)OC(COS(=O)(=O)O)C(OC2OC(C(=O)O)=CC(O)C2O)C1O (stereo not drawn) [H-8642, 4-deoxy-4-en-iduronic acid-(α-1,4)-2-deoxy-2-N-acetyl-6-O-sulfateglucosamine]
[1]; Table XXIIIA
  “R” value: 0 % × (μg/gm)^−1
  effect on DTH (printed in the Dose column): N.E.
[2]
  Bioassay of TNF Activity: Inconsistent

## N[C@H]1C(O)O[C@H](CO)[C@@H](O[C@@H]2OC(C(=O)O)=C[C@H](O)[C@H]2OS(=O)(=O)O)[C@@H]1O (stereo partly drawn) [H-9142, 2-O-sulfate-4-deoxy-4-en-iduronic acid-(α-1,4)-2-deoxyglucosamine]
[1]; Table XXIIIA
  “R” value: 0 % × (μg/gm)^−1
  effect on DTH (printed in the Dose column): N.E.
[2]
  Bioassay of TNF Activity: Inconsistent

## CC(=O)N[C@H]1C(O)O[C@H](CO)[C@@H](O[C@@H]2OC(C(=O)O)=C[C@H](O)[C@H]2OS(=O)(=O)O)[C@@H]1O (stereo partly drawn) [H-8767, 2-O-sulfate-4-deoxy-4-en-iduronic acid-(α-1,4)-2-deoxy-2-N-acetylglucosamine]
[1]; Table XXIIIA
  “R” value: 0 % × (μg/gm)^−1
  effect on DTH (printed in the Dose column): N.E.
[2]
  Bioassay of TNF Activity: Inconsistent

## N[C@H]1C(O)O[C@H](COS(=O)(=O)O)[C@@H](O[C@@H]2OC(C(=O)O)=C[C@H](O)[C@H]2O)[C@@H]1O (stereo partly drawn) [H-9017, 4-Deoxy-4-en-iduronic acid-(α-1,4)-2-deoxy-6-O-sulfateglucosamine]
[1]; Table XXIIIA
  “R” value: 0 % × (μg/gm)^−1
  effect on DTH (printed in the Dose column): N.E.
[2]
  Bioassay of TNF Activity: No effect
  “R” value: 0 % × (pg/ml)^−1

## CC(=O)N[C@H]1C(O)O[C@H](COS(=O)(=O)O)[C@@H](O[C@@H]2OC(C(=O)O)=C[C@H](O)[C@H]2OS(=O)(=O)O)[C@@H]1O (stereo partly drawn) [H-9517, 2-O-sulfate-4-deoxy-4-en-iduronic acid-(α-1,4)-2-deoxy-2-N-acetyl-6-O-sulfateglucosamine]
[2]
  Bioassay of TNF Activity: Inconsistent^c

## O=S(=O)(O)N[C@H]1C(O)O[C@H](CO)[C@@H](O)[C@@H]1OS(=O)(=O)O (stereo partly drawn) [GlcN-2, 3S, D-Glucosamine-2,3-disulfate, reference compound]
[1]
  effective dose range for inhibition ≧50% of control: narrow
